Columns and labels:
IL-6 and IL-2 = conditions: Muller et al. 1991; cited from earlier work
[1] = test system: rheumatoid arthritis, systemic lupus erythematosus and Sjögren's syndrome; experiment: Patients with rheumatoid arthritis, systemic lupus erythematosus and Sjögren's syndrome treated with the combination (Example 4); assay type: in vivo, human; conditions: after Vitamin D deficiency corrected with high dose Vitamin D replacement
Procedure: Low levels of vitamin D have been implicated in a number of autoimmune disorders, such as rheumatoid arthritis, systemic lupus erythematosus, and Sjögren's syndrome. Patients with rheumatoid arthritis, systemic lupus erythematosus and Sjögren's syndrome were treated with a combination of weekly high doses of Vitamin D (50,000 IU) and daily doses of 400 mg of hydroxychloroquine.

[2] = Side effects of high-dose Vitamin D in the two ITP patients; assay type: in vivo, human
Procedure: The patient's platelet count was 215,000/mm^3 six weeks after discontinuing prednisone, indicating a regimen of hydroxychloroquine at a dose of 200 mg twice a day and Vitamin D at a dose of 50,000 IU once a week was sufficient to maintain a stable count. The patient remained stable without the administration of prednisone.
In the above examples, an association between vitamin D deficiency and immune thrombocytopenia in two patients is described. Both patients had SLE and/or Sjögren's overlap with positive serology and profound life-threatening thrombocytopenia, all of which were unaffected by conventional therapies. […] After discontinuation of supplemental Vitamin D in one patient (Example 1), the 25-OH Vitamin D normalized, but the platelet count subsequently plummeted. Resuming vitamin D supplementation restored the platelet count to the previous normal range.

[3] = test system: multiple sclerosis in the murine model; conditions: Cantorna 1996; Pedersen 2007; cited from earlier work

## C=C1/C(=C\C=C2/CCC[C@]3(C)[C@@H]([C@H](C)CCCC(C)(C)O)CC[C@@H]23)C[C@@H](O)C[C@@H]1O [Vitamin D, 1a,25-dihydroxy cholecalciferol]
IL-6 and IL-2
  production of interleukin IL-6 and IL-2 in cell cultures: reduced
[1]
  response to disease modifying anti-rheumatic drugs: enhanced
[2]; Example 1 patient
  changes in calcium, phosphate, or creatinine levels: no significant changes
[2]; both patients
  untoward side effects: neither patient experienced any untoward side effect
[3]
  development of multiple sclerosis in the murine model: can inhibit the development of multiple sclerosis

From US9393251B2, “Compositions and methods for treating severe thrombocytopenia related disease” (priority 2013, dated 2016)
